Assay results published in PubChem BioAssay AID256 (DTP/NCI, 2004).
Several values for one entry are separate records, joined by “and”; a condition that tells them apart may be missing. Equal values may be shown once. Inconclusive results and toxic doses are left out.

Tested on: CD2F1 mice, L1210 leukemia ip, survival T/C
Assay: NCI In Vivo Anticancer Drug Screen. Data for tumor model L1210 Leukemia (intraperitoneal) in CD2F1 (CDF1) mice
Details: higher = longer survival
Summary of the method: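 Transplantable tumor in mice; compound-treated vs vehicle-treated groups. Read-out = treated/control ratio of the measured endpoint.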

[1] = endpoint: mean survival time, dose: 100.0 mg/kg/injection, schedule: Q04DX002 (ip), vehicle: saline with Tween-80
[2] = endpoint: mean survival time, dose: 100.0 mg/kg/injection, schedule: Q01DX009 (ip), vehicle: saline with Tween-80
[3] = endpoint: mean survival time, dose: 200.0 mg/kg/injection, schedule: Q01DX009 (ip), vehicle: saline with Tween-80
[4] = endpoint: mean survival time, dose: 400.0 mg/kg/injection, schedule: Q01DX009 (ip), vehicle: saline with Tween-80
[5] = endpoint: mean survival time, dose: 100.0 mg/kg/injection, schedule: Q04DX003 (ip), vehicle: saline with Tween-80
[6] = endpoint: mean survival time, dose: 200.0 mg/kg/injection, schedule: Q04DX003 (ip), vehicle: saline with Tween-80
[7] = endpoint: mean survival time, dose: 400.0 mg/kg/injection, schedule: Q04DX003 (ip), vehicle: saline with Tween-80
[8] = endpoint: mean survival time, dose: 50.0 mg/kg/injection, schedule: Q01DX009 (ip), vehicle: saline with Tween-80
[9] = endpoint: mean survival time, dose: 100.0 mg/kg/injection, schedule: Q01DX001 (ip), vehicle: saline with Tween-80
[10] = endpoint: mean survival time, dose: 200.0 mg/kg/injection, schedule: Q01DX001 (ip), vehicle: saline with Tween-80
[11] = endpoint: mean survival time, dose: 400.0 mg/kg/injection, schedule: Q01DX001 (ip), vehicle: saline with Tween-80
[12] = endpoint: mean survival time, dose: 100.0 mg/kg/injection, schedule: Q01DX009 (ip), vehicle: saline
[13] = endpoint: mean survival time, dose: 25.0 mg/kg/injection, schedule: Q01DX009 (ip), vehicle: saline with Tween-80

In the case of C=CC(=O)OCCCS(=O)(=O)[O-].C=CC(=O)OCCCS(=O)(=O)[O-].NC1CCCCC1N.[Pt+4], the T/C (endpoint: median survival time, dose: 3.12 mg/kg/injection, schedule: Q04DX003 (ip), vehicle: saline with Tween-80) was 108 % of control, the T/C (endpoint: median survival time, dose: 6.25 mg/kg/injection, schedule: Q04DX003 (ip), vehicle: saline with Tween-80) was 119 % of control and 109 % of control and the T/C (endpoint: median survival time, dose: 12.5 mg/kg/injection, schedule: Q04DX003 (ip), vehicle: saline with Tween-80) was 119 % of control and 109 % of control. The T/C (endpoint: median survival time, dose: 25.0 mg/kg/injection, schedule: Q04DX003 (ip), vehicle: saline with Tween-80) was 113 % of control and 120 % of control, the T/C (endpoint: median survival time, dose: 100.0 mg/kg/injection, schedule: Q04DX003 (ip), vehicle: saline with Tween-80) was 158 % of control and 168 % of control and the T/C (endpoint: median survival time, dose: 200.0 mg/kg/injection, schedule: Q04DX003 (ip), vehicle: saline with Tween-80) was 204 % of control and 301 % of control.
In the case of COc1cc([N+](=O)[O-])c(C(=O)O)c(C(=O)O)c1OC, the T/C (endpoint: mean survival time, dose: 12.5 mg/kg/injection, schedule: Q04DX002 (ip), vehicle: saline with Tween-80) was 104 % of control, the T/C (endpoint: mean survival time, dose: 25.0 mg/kg/injection, schedule: Q04DX002 (ip), vehicle: saline with Tween-80) was 96 % of control and the T/C (endpoint: mean survival time, dose: 50.0 mg/kg/injection, schedule: Q04DX002 (ip), vehicle: saline with Tween-80) was 104 % of control.
CCOc1ccccc1/C=C1\N=C(c2ccc(Cl)cc2)OC1=O was tested, and the T/C [1] was 94 % of control, the T/C (endpoint: mean survival time, dose: 200.0 mg/kg/injection, schedule: Q04DX002 (ip), vehicle: saline with Tween-80) was 98 % of control and the T/C (endpoint: mean survival time, dose: 400.0 mg/kg/injection, schedule: Q04DX002 (ip), vehicle: saline with Tween-80) was 94 % of control.
With C(=Nc1ccccc1)c1ccc(-c2ccccc2)cc1 the T/C [2] was 95 % of control, the T/C (endpoint: mean survival time, dose: 100.0 mg/kg/injection, schedule: Q04DX003 (ip), vehicle: saline sonified) was 97 % of control and the T/C [3] was 98 % of control. For the same compound, the T/C (endpoint: mean survival time, dose: 200.0 mg/kg/injection, schedule: Q04DX003 (ip), vehicle: saline sonified) was 101 % of control, the T/C [4] was 108 % of control and the T/C (endpoint: mean survival time, dose: 400.0 mg/kg/injection, schedule: Q04DX003 (ip), vehicle: saline sonified) was 94 % of control.
With CC(=O)OC1CSC1 the T/C (endpoint: mean survival time, dose: 30.0 mg/kg/injection, schedule: Q01DX001 (ip), vehicle: saline with Tween-80) was 106 % of control, the T/C (endpoint: mean survival time, dose: 60.0 mg/kg/injection, schedule: Q01DX001 (ip), vehicle: saline with Tween-80) was 109 % of control and the T/C (endpoint: mean survival time, dose: 120.0 mg/kg/injection, schedule: Q01DX001 (ip), vehicle: saline with Tween-80) was 101 % of control.
O=[N+]([O-])c1cc(CCl)ccc1CCl was tested, and the T/C (endpoint: mean survival time, dose: 75.0 mg/kg/injection, schedule: Q01DX001 (ip), vehicle: other) was 96 % of control and the T/C (endpoint: mean survival time, dose: 150.0 mg/kg/injection, schedule: Q01DX001 (ip), vehicle: other) was 96 % of control.
For CCOC(=O)/C=C1\NC(=O)CS1, the T/C [2] was 97 % of control, the T/C [5] was 100 % of control and the T/C [3] was 95 % of control. For the same compound, the T/C [6] was 100 % of control, the T/C [4] was 103 % of control and the T/C [7] was 100 % of control.
With COc1ccccc1C(=O)NS(=O)(=O)c1ccc(Cl)cc1 the T/C (endpoint: mean survival time, dose: 100.0 mg/kg/injection, schedule: Q01DX009 (ip), vehicle: acetone) was 101 % of control and the T/C (endpoint: mean survival time, dose: 200.0 mg/kg/injection, schedule: Q01DX009 (ip), vehicle: acetone) was 107 % of control.
For N=C1c2ccccc2-c2ccccc21, the T/C [8] was 101 % of control and the T/C [2] was 96 % of control.
O=C(O)c1cc([N+](=O)[O-])cc([N+](=O)[O-])c1 was tested, and the T/C [5] was 97 % of control, the T/C [6] was 97 % of control and the T/C [7] was 101 % of control.
In the case of O=S(=O)(F)c1ccc(S)c(Cl)c1Cl, the T/C [1] was 98 % of control.
CCOC(=O)c1ccc(N/C(C)=C/C(=O)OC)cc1 was tested, and the T/C (endpoint: mean survival time, dose: 75.0 mg/kg/injection, schedule: Q04DX003 (ip), vehicle: saline) was 94 % of control and the T/C (endpoint: mean survival time, dose: 150.0 mg/kg/injection, schedule: Q04DX003 (ip), vehicle: saline) was 91 % of control.
For CC(=O)COc1cc(C)cc(C)c1, the T/C [9] was 104 % of control, the T/C [10] was 95 % of control and the T/C [11] was 101 % of control.
OCC(F)(F)F was tested, and the T/C [12] was 123 % of control, the T/C [5] was 108 % of control and the T/C [6] was 110 % of control. The T/C [7] was 115 % of control.
In the case of O=P1(OCCCCCl)NCCCO1 (configuration not stated), the T/C (endpoint: mean survival time, dose: 62.5 mg/kg/injection, schedule: Q01DX001 (ip), vehicle: water) was 103 % of control, the T/C (endpoint: mean survival time, dose: 125.0 mg/kg/injection, schedule: Q01DX001 (ip), vehicle: water) was 104 % of control and the T/C (endpoint: mean survival time, dose: 250.0 mg/kg/injection, schedule: Q01DX001 (ip), vehicle: water) was 103 % of control. For the same compound, the T/C (endpoint: mean survival time, dose: 500.0 mg/kg/injection, schedule: Q01DX001 (ip), vehicle: water) was 108 % of control and the T/C (endpoint: mean survival time, dose: 750.0 mg/kg/injection, schedule: Q01DX001 (ip), vehicle: water) was 101 % of control.
With [Cl][Pt+].[NH-]c1ccccc1C=Nc1ccccc1C=O the T/C (endpoint: median survival time, dose: 11.5 mg/kg/injection, schedule: Q04DX003 (ip), vehicle: saline with Tween-80) was 100 % of control, the T/C (endpoint: median survival time, dose: 23.0 mg/kg/injection, schedule: Q04DX003 (ip), vehicle: saline with Tween-80) was 105 % of control and the T/C (endpoint: median survival time, dose: 46.0 mg/kg/injection, schedule: Q04DX003 (ip), vehicle: saline with Tween-80) was 105 % of control. For the same compound, the T/C (endpoint: median survival time, dose: 92.0 mg/kg/injection, schedule: Q04DX003 (ip), vehicle: saline with Tween-80) was 97 % of control and the T/C (endpoint: median survival time, dose: 184.0 mg/kg/injection, schedule: Q04DX003 (ip), vehicle: saline with Tween-80) was 98 % of control.
With CC(C)N(CCNc1nc(C(Cl)(Cl)Cl)nc2ccc(Cl)cc12)C(C)C the T/C [9] was 103 % of control, the T/C [2] was 96 % of control and the T/C [10] was 94 % of control. For the same compound, the T/C [3] was 96 % of control, the T/C [11] was 103 % of control and the T/C [4] was 95 % of control.
In the case of CCCCN(C)N=Nc1cccnc1, the T/C (endpoint: mean survival time, dose: 13.0 mg/kg/injection, schedule: Q01DX009 (ip), vehicle: saline) was 90 % of control, the T/C (endpoint: mean survival time, dose: 19.0 mg/kg/injection, schedule: Q01DX009 (ip), vehicle: saline) was 109 % of control and the T/C (endpoint: mean survival time, dose: 28.0 mg/kg/injection, schedule: Q01DX009 (ip), vehicle: saline) was 109 % of control. For the same compound, the T/C (endpoint: mean survival time, dose: 42.0 mg/kg/injection, schedule: Q01DX009 (ip), vehicle: saline) was 92 % of control.
In the case of COC(=O)/C=C\C(=O)O, the T/C (endpoint: mean survival time, dose: 50.0 mg/kg/injection, schedule: Q01DX009 (ip), vehicle: saline) was 102 % of control and the T/C [12] was 100 % of control.
With O=C(NCCNC(=O)Nc1ccc(Cl)cc1)Nc1ccc(Cl)cc1 the T/C [2] was 105 % of control, the T/C [5] was 88 % of control and the T/C [3] was 107 % of control. For the same compound, the T/C [6] was 90 % of control, the T/C [4] was 96 % of control and the T/C [7] was 88 % of control.
For COc1cc2c(cc1O)CCCC=C2C1CCCCc2cc(O)c(OC)cc21 (configuration not stated), the T/C [8] was 96 % of control, the T/C [2] was 103 % of control and the T/C [3] was 96 % of control.
For COc1cc(OC)c(OC)cc1/C=C\c1ccc2ccccc2[n+]1C, the T/C (endpoint: mean survival time, dose: 12.5 mg/kg/injection, schedule: Q01DX009 (ip), vehicle: saline with Tween-80) was 100 % of control, the T/C [13] was 91 % of control and the T/C [5] was 104 % of control.
O=c1[nH][nH]c(=O)c2c1oc1c(=O)[nH][nH]c(=O)c12 was tested, and the T/C (endpoint: mean survival time, dose: 25.0 mg/kg/injection, schedule: Q01DX001 (ip), vehicle: saline with Tween-80) was 104 % of control and the T/C (endpoint: mean survival time, dose: 50.0 mg/kg/injection, schedule: Q01DX001 (ip), vehicle: saline with Tween-80) was 92 % of control.
For O=C(COc1ccccc1)NC(=S)Nc1ccc(Cl)cc1Cl, the T/C [13] was 100 % of control and the T/C [8] was 100 % of control.
For CN(C)C1CCC(Nc2nc(Nc3cc(Cl)cc(Cl)c3)nc3ccccc23)CC1 (configuration not stated), the T/C [13] was 102 % of control, the T/C (endpoint: mean survival time, dose: 25.0 mg/kg/injection, schedule: Q04DX003 (ip), vehicle: saline with Tween-80) was 101 % of control and the T/C [8] was 96 % of control. For the same compound, the T/C (endpoint: mean survival time, dose: 50.0 mg/kg/injection, schedule: Q04DX003 (ip), vehicle: saline with Tween-80) was 103 % of control and the T/C [5] was 98 % of control.
For Nc1[nH]c(=S)[nH]c(=O)c1NC(=O)C1CC1, the T/C (endpoint: mean survival time, dose: 100.0 mg/kg/injection, schedule: Q01DX009 (ip), vehicle: saline sonified) was 98 % of control, the T/C (endpoint: mean survival time, dose: 200.0 mg/kg/injection, schedule: Q01DX009 (ip), vehicle: saline sonified) was 92 % of control and the T/C (endpoint: mean survival time, dose: 400.0 mg/kg/injection, schedule: Q01DX009 (ip), vehicle: saline sonified) was 98 % of control.
